Measurements taken from ChEMBL document CHEMBL3044946, “Glyphosate resistance in perennial ryegrass (Lolium perenne L.) from Argentina” (2012).
The source made the active and inactive calls. The rule behind the calls is not given here.

Key:
[1] = test system: Lolium perenne; assay: Herbicidal activity against glyphosate-resistant Lolium perenne (perennial ryegrass) assessed as regrowth level of controlled plants at 1440 g ae/ha measured 30 days after compound application; assay type: functional
[2] = test system: Lolium perenne; assay: Herbicidal activity against glyphosate-resistant Lolium perenne (perennial ryegrass) assessed as regrowth level of controlled plants at 360 g ae/ha measured 30 days after compound application; assay type: functional
[3] = test system: Lolium perenne; assay: Induction of shikimate accumulation in leaf blades of glyphosate-susceptible Lolium perenne (perennial ryegrass) at 1440 g ae/ha measured 48 hr post compound application; assay type: functional, organism-based
[4] = test system: Lolium perenne; assay: Herbicidal activity against glyphosate-resistant Lolium perenne (perennial ryegrass) assessed as regrowth level of controlled plants at 2880 g ae/ha measured 30 days after compound application; assay type: functional
[5] = test system: Lolium perenne; assay: Herbicidal activity against glyphosate-resistant Lolium perenne (perennial ryegrass) assessed as inhibition of plumule growth; assay type: functional
[6] = test system: Lolium perenne; assay: Induction of shikimate accumulation in leaf lamina of glyphosate-susceptible Lolium perenne (perennial ryegrass) at 1440 g ae/ha measured 24 hr post compound application; assay type: functional, organism-based
[7] = test system: Lolium perenne; assay: Herbicidal activity against glyphosate-resistant Lolium perenne (perennial ryegrass) assessed as inhibition of germination; assay type: functional
[8] = test system: Lolium perenne; assay: Herbicidal activity against glyphosate-susceptible Lolium perenne (perennial ryegrass) assessed as inhibition of plumule growth; assay type: functional
[9] = test system: Lolium perenne; assay: Herbicidal activity against glyphosate-susceptible Lolium perenne (perennial ryegrass) assessed as inhibition of plant survival measured after 15 days post compound application; assay type: functional
[10] = test system: Lolium perenne; assay: Herbicidal activity against glyphosate-resistant Lolium perenne (perennial ryegrass) assessed as plant-regrowth at 720 g ae/ha measured 30 days after compound application; assay type: functional
[11] = test system: Lolium perenne; assay: Resistance index, ratio of ED50 for glyphosate-resistant Lolium perenne (perennial ryegrass) to ED50 for glyphosate-susceptible Lolium perenne (perennial ryegrass) by plant survival inhibition study; assay type: functional
[12] = test system: Lolium perenne; assay: Herbicidal activity against glyphosate-susceptible Lolium perenne (perennial ryegrass) assessed as inhibition of germination; assay type: functional
[13] = test system: Lolium perenne; assay: Induction of shikimate accumulation in leaf sheath of glyphosate-resistant Lolium perenne (perennial ryegrass) at 1440 g ae/ha measured 24 to 72 hr post compound application; assay type: functional, organism-based
[14] = test system: Lolium perenne; assay: Herbicidal activity against glyphosate-resistant Lolium perenne (perennial ryegrass) assessed as plant-regrowth at 360 g ae/ha measured 30 days after compound application; assay type: functional
[15] = test system: Lolium perenne; assay: Resistance index, ratio of GR50 for glyphosate-resistant Lolium perenne (perennial ryegrass) to GR50 for glyphosate-susceptible Lolium perenne (perennial ryegrass) by plumule growth inhibition study; assay type: functional
[16] = test system: Lolium perenne; assay: Reduction in chlorophyll content in glyphosate-resistant Lolium perenne (perennial ryegrass) at 1000 to 3000 g ae/ha measured after 10 days post compound application; assay type: functional, organism-based
[17] = test system: Lolium perenne; assay: Herbicidal activity against glyphosate-resistant Lolium perenne (perennial ryegrass) assessed as plant-regrowth at 1440 g ae/ha measured 30 days after compound application; assay type: functional
[18] = test system: Lolium perenne; assay: Reduction in chlorophyll content in glyphosate-susceptible Lolium perenne (perennial ryegrass) at 1000 to 3000 g ae/ha measured after 7 to 10 days post compound application; assay type: functional, organism-based
[19] = test system: Lolium perenne; assay: Induction of shikimate accumulation in leaf sheath of glyphosate-susceptible Lolium perenne (perennial ryegrass) at 1440 g ae/ha measured 48 hr post compound application; assay type: functional, organism-based
[20] = test system: Lolium perenne; assay: Induction of shikimate accumulation in leaf lamina of glyphosate-susceptible Lolium perenne (perennial ryegrass) at 1440 g ae/ha measured 72 hr post compound application; assay type: functional, organism-based
[21] = test system: Lolium perenne; assay: Herbicidal activity against glyphosate-resistant Lolium perenne (perennial ryegrass) assessed as plant-regrowth at 2880 g ae/ha measured 30 days after compound application; assay type: functional
[22] = test system: Lolium perenne; assay: Resistance index, ratio of LD50 for glyphosate-resistant Lolium perenne (perennial ryegrass) to LD50 for glyphosate-susceptible Lolium perenne (perennial ryegrass) by germination inhibition study; assay type: functional
[23] = test system: Lolium perenne; assay: Herbicidal activity against glyphosate-resistant Lolium perenne (perennial ryegrass) assessed as regrowth level of controlled plants at 720 g ae/ha measured 30 days after compound application; assay type: functional
[24] = test system: Lolium perenne; assay: Induction of shikimate accumulation in leaf blade of glyphosate-resistant Lolium perenne (perennial ryegrass) at 1440 g ae/ha measured 24 to 72 hr post compound application; assay type: functional, organism-based
[25] = test system: Lolium perenne; assay: Herbicidal activity against glyphosate-resistant Lolium perenne (perennial ryegrass) assessed as inhibition of plant survival measured after 15 days post compound application; assay type: functional

## O=C(O)CNCP(=O)(O)O [GLYPHOSATE]
[1]
  Activity: 43%
[2]
  Activity: 37%
[3]
  Activity: Active
[4]
  Activity: 33%
[5]
  GR50: 41.5 gAe/L
[6]
  Activity: Active
[7]
  LD50: 138 gAe/L
[8]
  GR50: 9.3 gAe/L
[9]
  ED50: 138.1 gAe/L
[10]
  Activity: 17%
[11]
  Ratio: 10.8
[12]
  LD50: 42 gAe/L
[13]
  Activity: inactive
[14]
  Activity: 6%
[15]
  Ratio: 4.4
[16]
  Activity: inactive
[17]
  Activity: 23%
[18]
  Activity: Active
[19]
  Activity: Active
[20]
  Activity: Active
[21]
  Activity: 25%
[22]
  Ratio: 3.2
[23]
  Activity: 48%
[24]
  Activity: inactive
[25]
  ED50: 1495 gAe/L
